In patent US20260000676A1, “CHROMAN DERIVATIVES AS ESTROGEN RECEPTOR DEGRADERS” (THE REGENTS OF THE UNIVERSITY OF MICHIGAN, priority 2022, published 2026):

Columns and labels:
[1] = biological target: CRBN/DDB1 (Homo sapiens (Human), UniProt Q96SW2); assay: HTRF binding assay to CRBN/DDB1; conditions: read-out: CRBN HTRF IC50
Procedure: The binding potency was determined using HTRF assay technology (Perkin Elmer). Compounds were serially diluted in DMSO and 0.2 μL volume was transferred to white 384-well plate.

[2] = biological target: T1, ER (Homo sapiens (Human), UniProt P03372); assay: In-cell western (ICW) ER degradation assay in MCF-7 cells; format: cell-based; conditions: MCF7, 16 hrs; for DC50: ER degradation; for Dmax: MCF7, maximal ER degradation; for MCF7 Dmax %: maximal ER degradation
[3] = biological target: T1, ER; assay: In-cell western (ICW) ER degradation assay in T47D cells; format: cell-based; conditions: 16 hrs; for DC50: ER degradation; for Dmax / T47D Dmax %: maximal ER degradation

Sequence of CRBN/DDB1 (Q96SW2 whole entry): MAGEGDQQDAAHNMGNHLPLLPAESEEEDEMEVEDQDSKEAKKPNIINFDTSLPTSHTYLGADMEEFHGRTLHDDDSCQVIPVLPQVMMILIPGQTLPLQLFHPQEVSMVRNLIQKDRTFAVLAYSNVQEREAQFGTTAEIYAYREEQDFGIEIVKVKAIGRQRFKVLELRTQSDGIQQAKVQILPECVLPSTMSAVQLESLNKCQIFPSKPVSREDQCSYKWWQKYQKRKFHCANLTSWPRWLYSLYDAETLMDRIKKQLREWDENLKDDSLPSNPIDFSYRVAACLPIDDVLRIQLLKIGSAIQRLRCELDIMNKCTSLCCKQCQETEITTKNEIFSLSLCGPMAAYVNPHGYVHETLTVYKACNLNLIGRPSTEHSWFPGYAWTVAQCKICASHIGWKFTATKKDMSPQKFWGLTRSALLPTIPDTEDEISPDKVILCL
Sequence of CRBN/DDB1 (Q16531 whole entry partner): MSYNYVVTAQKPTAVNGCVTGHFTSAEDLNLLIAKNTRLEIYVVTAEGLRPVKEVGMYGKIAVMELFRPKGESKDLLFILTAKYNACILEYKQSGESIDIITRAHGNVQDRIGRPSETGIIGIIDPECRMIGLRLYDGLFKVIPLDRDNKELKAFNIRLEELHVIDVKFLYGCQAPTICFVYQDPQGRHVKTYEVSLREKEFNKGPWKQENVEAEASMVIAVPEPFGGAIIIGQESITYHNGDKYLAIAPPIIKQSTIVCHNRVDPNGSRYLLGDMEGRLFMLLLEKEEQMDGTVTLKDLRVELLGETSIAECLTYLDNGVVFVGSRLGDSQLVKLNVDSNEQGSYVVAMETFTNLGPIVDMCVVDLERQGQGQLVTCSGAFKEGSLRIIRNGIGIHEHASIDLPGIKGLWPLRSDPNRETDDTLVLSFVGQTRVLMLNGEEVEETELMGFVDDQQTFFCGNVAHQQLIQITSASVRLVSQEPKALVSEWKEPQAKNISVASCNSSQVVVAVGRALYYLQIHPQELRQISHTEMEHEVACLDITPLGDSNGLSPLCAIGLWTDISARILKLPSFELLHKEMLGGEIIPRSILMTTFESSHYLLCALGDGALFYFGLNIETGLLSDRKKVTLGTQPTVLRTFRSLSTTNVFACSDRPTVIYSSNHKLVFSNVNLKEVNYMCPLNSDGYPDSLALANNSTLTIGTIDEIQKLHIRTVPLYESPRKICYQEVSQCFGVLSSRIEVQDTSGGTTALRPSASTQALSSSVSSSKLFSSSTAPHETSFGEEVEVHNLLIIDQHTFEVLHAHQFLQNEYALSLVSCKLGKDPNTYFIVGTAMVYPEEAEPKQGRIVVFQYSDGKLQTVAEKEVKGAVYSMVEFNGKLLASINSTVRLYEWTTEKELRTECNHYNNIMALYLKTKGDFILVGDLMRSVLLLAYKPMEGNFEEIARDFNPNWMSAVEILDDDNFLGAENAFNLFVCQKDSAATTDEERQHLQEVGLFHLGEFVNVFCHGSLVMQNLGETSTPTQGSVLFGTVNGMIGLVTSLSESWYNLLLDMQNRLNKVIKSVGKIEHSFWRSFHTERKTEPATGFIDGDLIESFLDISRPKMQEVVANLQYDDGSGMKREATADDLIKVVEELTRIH
T1 sequence (P03372 whole entry): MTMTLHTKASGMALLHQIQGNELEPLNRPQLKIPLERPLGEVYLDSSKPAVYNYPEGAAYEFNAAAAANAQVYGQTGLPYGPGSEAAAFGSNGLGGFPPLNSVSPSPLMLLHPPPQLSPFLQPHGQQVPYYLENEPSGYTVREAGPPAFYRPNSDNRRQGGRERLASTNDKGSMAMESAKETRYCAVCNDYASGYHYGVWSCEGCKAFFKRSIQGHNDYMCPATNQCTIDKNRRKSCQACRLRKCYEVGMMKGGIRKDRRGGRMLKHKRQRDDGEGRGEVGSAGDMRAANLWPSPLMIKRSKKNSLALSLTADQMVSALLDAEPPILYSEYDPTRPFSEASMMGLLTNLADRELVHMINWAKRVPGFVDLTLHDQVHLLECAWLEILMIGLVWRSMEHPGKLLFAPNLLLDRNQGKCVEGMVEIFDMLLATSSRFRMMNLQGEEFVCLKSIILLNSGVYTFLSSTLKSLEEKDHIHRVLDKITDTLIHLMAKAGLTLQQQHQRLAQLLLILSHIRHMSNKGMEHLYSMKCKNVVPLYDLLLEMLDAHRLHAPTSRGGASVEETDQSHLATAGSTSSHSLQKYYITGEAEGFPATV

Row | SMILES | IC50 [1] [nM] | DC50 [2] [nM] | Dmax [2] [%] | DC50 [3] [nM] | Dmax [3] [%] | Dmax ([3]; given as number) [%] | MCF7 Dmax % [2] | DC50 ([2]; given as number) [nM] | T47D Dmax % [3]
1 | COc1nc(C(=O)NC2CCC(=O)NC2=O)ccc1N1CCN(CC2CCC3(CC2)CN(c2ccc([C@@H]4c5ccc(O)cc5OC[C@@H]4c4ccccc4)cc2)C3)CC1 (single isomer, unassigned) [Compound A108] | 500 to 5000 | 1 to 10 | 50 to 75 | < 1 | ≥ 75 | 76.3 |  |  | 
2 | O=C1CC[C@@H](NC(=O)c2ccc(N3CCC(CN4CC5(CCN(c6ccc([C@H]7c8ccc(O)cc8OC[C@H]7c7ccccc7)cc6)CC5)C4)CC3)cn2)C(=O)N1 (single isomer, unassigned) [Compound A111] | 500 to 5000 | < 1 | 50 to 75 | < 1 | 50 to 75 |  |  |  | 
3 | COc1cc(N2CCC(CN3CCN(c4ccc(C(=O)NC5CCC(=O)NC5=O)nc4)CC3)CC2)ccc1[C@H]1c2ccc(O)cc2OC[C@H]1c1ccccc1 (single isomer, unassigned) [Compound A124] | > 5000 | < 1 | 50 to 75 | < 1 | 50 to 75 |  |  |  | 
4 | COc1cc(N2CCC(CN3CCN(c4cnc(C(=O)NC5CCC(=O)NC5=O)cc4OC)CC3)CC2)ccc1[C@H]1c2ccc(O)cc2OC[C@H]1c1ccccc1 (single isomer, unassigned) [Compound A127] | > 5000 | < 1 | 50 to 75 | < 1 | 25 to 50 |  |  |  | 
5 | O=C1CCC(NC(=O)c2ccc(N3CCC(CN4CCN(c5ccc([C@H]6c7ccc(O)cc7OC[C@H]6c6ccccc6)cc5)CC4)CC3)cn2)C(=O)N1 (single isomer, unassigned) [Compound A128] | > 5000 | < 1 |  | < 1 | 50 to 75 |  | B (“B”: >50% and <75%) |  | 
6 | O=C1CC[C@@H](Nc2ccc(C3CCN(CC4CCC5(CC4)CN(c4ccc([C@@H]6c7ccc(O)cc7OC[C@@H]6c6ccccc6)cc4)C5)CC3)cc2)C(=O)N1 (single isomer, unassigned) [Compound A141] | 50 to 500 | 1 to 10 | 50 to 75 | 1 to 10 | 50 to 75 |  |  |  | 
7 | COc1cc(C(=O)N[C@@H]2CCC(=O)NC2=O)ncc1N1CCN(CC2CCC3(CC2)CN(c2ccc([C@H]4c5ccc(O)cc5OC[C@H]4c4ccccc4)cc2)C3)CC1 (single isomer, unassigned) [Compound A144] | 500 to 5000 | 10 to 100 | 25 to 50 | > 100 | < 25 |  |  |  | 
8 | O=C1CC[C@H](N2Cc3c(ccc4c3OC[C@H]3CN(C[C@@H]5COC6(CCN(c7ccc([C@@H]8c9ccc(O)cc9OC[C@@H]8c8ccccc8)cc7F)CC6)C5)CCN43)C2=O)C(=O)N1 (single isomer, unassigned) [Compound A157] | < 50 | < 1 | 50 to 75 | < 1 | ≥ 75 |  |  |  | 
9 | O=C1CC[C@@H](N2Cc3c(ccc4c3OC[C@@H]3CN(CC5COC6(CCN(c7ccc([C@@H]8c9ccc(O)cc9OC[C@@H]8c8ccccc8)cc7F)CC6)C5)CCN43)C2=O)C(=O)N1 (single isomer, unassigned) [Compound A158] | < 50 | < 1 |  | < 1 |  |  |  |  | 
10 | O=C1CC[C@@H](Nc2ccc(C3CCN(C[C@H]4COC5(CCN(c6ccc([C@@H]7c8ccc(O)cc8OC[C@@H]7c7ccccc7)cc6)CC5)C4)CC3)c(F)c2)C(=O)N1 (single isomer, unassigned) [Compound A163] | 50 to 500 | < 1 | 25 to 50 | < 1 | 50 to 75 |  |  |  | 
11 | O=C1CC[C@@H](Nc2ccc(C3CCN(C[C@H]4COC5(CCN(c6ccc([C@H]7c8ccc(O)cc8OC[C@H]7c7ccccc7)cc6)CC5)C4)CC3)c(F)c2)C(=O)N1 (single isomer, unassigned) [Compound A164] | < 50 | < 1 | 25 to 50 | 1 to 10 | 50 to 75 |  |  |  | 
12 | O=C1CC[C@@H](Nc2ccc(C3CCN(C[C@@H]4COC5(CCN(c6ccc([C@@H]7c8ccc(O)cc8OC[C@@H]7c7ccccc7)cc6)CC5)C4)CC3)c(F)c2)C(=O)N1 (single isomer, unassigned) [Compound A165] | 50 to 500 |  | 25 to 50 | < 1 | 50 to 75 |  |  | 0.31 | 
13 | COc1cc(N2CCC(CN3CCN4c5ccc(C(=O)NC6CCC(=O)NC6=O)nc5OC[C@H]4C3)CC2)ccc1C1c2ccc(O)cc2OCC1c1ccccc1 (stereo in doubt) [Compound A134, (4aR)—N-(2,6-dioxopiperidin-3-yl)-3-((1-(4-((3R,4S)-7-hydroxy-3-phenylchroman-4-yl)-3-methoxyphenyl)piperidin-4-yl)methyl)-1,2,3,4,4a, 5-hexahydropyrazino[1,2-d]pyrido[2,3-b][1,4]oxazine-8-carboxamide] | 500 to 5000 | < 1 | ≥ 75 | < 1 | ≥ 75 |  |  |  | 
14 | O=C1CCC(Nc2ccc(N3CCN(CC4CC5(CCN(c6ccc([C@@H]7c8ccc(O)cc8OC[C@@H]7c7ccccc7)cc6)CC5)C4)CC3)c(F)c2)C(=O)N1 (stereo partly drawn) [Compound A52, 3-((3-fluoro-4-(4-((7-(4-((3S,4R)-7-hydroxy-3-phenylchroman-4-yl)phenyl)-7-azaspiro[3.5]nonan-2-yl)methyl)piperazin-1-yl)phenyl)amino)piperidine-2,6-dione] | 50 to 500 | > 100 | < 25 | < 1 | 25 to 50 |  |  |  | 
15 | O=C1CCC(N2Cc3cc4c(cc3C2=O)OC[C@@H]2CN(CC3CCC5(CC3)CN(c3ccc([C@@H]6c7ccc(O)cc7OC[C@@H]6c6ccccc6)cc3)C5)CCN42)C(=O)N1 (stereo partly drawn) [Compound A63, 3-((S)-3-((2-(4-((3S,4R)-7-hydroxy-3-phenylchroman-4-yl)phenyl)-2-azaspiro[3.5]nonan-7-yl)methyl)-8-oxo-1,2,3,4,4a,5,8,10-octahydro-9H-pyrazino[1′,2′:4,5][1,4]oxazino[2,3-f]isoindol-9-yl)piperidine-2,6-dione] | 500 to 5000 | > 100 |  | > 100 |  |  | D (“D”; <25%) |  | D (“D”; <25%)
16 | COc1cc(N2CCC(CN3CCN4c5cc6c(cc5OC[C@H]4C3)C(=O)N(C3CCC(=O)NC3=O)C6)CC2)ccc1[C@H]1c2ccc(O)cc2OC[C@H]1c1ccccc1 (stereo partly drawn) [Compound A74, 3-((R)-3-((1-(4-((3R,4S)-7-hydroxy-3-phenylchroman-4-yl)-3-methoxyphenyl)piperidin-4-yl)methyl)-8-oxo-1,2,3,4,4a,5,8,10-octahydro-9H-pyrazino[1′,2′:4,5][1,4]oxazino[2,3-f]isoindol-9-yl)piperidine-2,6-dione] | 500 to 5000 | < 1 | < 25 | 1 to 10 | 25 to 50 |  |  |  | 
17 | O=C1CCC(NC(=O)c2ccc(N3CCN(CC4CC5(CCN(c6ccc([C@@H]7c8ccc(O)cc8OC[C@@H]7c7ccccc7)cc6)CC5)C4)CC3)cn2)C(=O)N1 (stereo partly drawn) [Compound A85, N-(2,6-dioxopiperidin-3-yl)-5-(4-((7-(4-((3S,4R)-7-hydroxy-3-phenylchroman-4-yl)phenyl)-7-azaspiro[3.5]nonan-2-yl)methyl)piperazin-1-yl)picolinamide] | > 5000 | < 1 | 50 to 75 | 1 to 10 | 50 to 75 |  |  |  | 
18 | O=C1CCC(NC(=O)c2ccc3c(n2)OC[C@H]2CN(CC4CC5(CCN(c6ccc([C@@H]7c8ccc(O)cc8OC[C@@H]7c7ccccc7)cc6)CC5)C4)CCN32)C(=O)N1 (stereo partly drawn) [Compound A93, (4aR)-N-(2,6-dioxopiperidin-3-yl)-3-((7-(4-((3S,4R)-7-hydroxy-3-phenylchroman-4-yl)phenyl)-7-azaspiro[3.5]nonan-2-yl)methyl)-1,2,3,4,4a,5-hexahydropyrazino[1,2-d]pyrido[2,3-b][1,4]oxazine-8-carboxamide] | 500 to 5000 | 1 to 10 | 50 to 75 | < 1 | 50 to 75 |  |  |  | 
19 | O=C1CCC(NC(=O)c2ccc3c(n2)OC[C@H]2CN(CC4CCN(c5ccc([C@H]6c7ccc(O)cc7OC[C@H]6c6ccccc6)cc5F)CC4)CCN32)C(=O)N1 (stereo partly drawn) [Compound A103, (4aR)-N-(2,6-dioxopiperidin-3-yl)-3-((1-(2-fluoro-4-((3R,4S)-7-hydroxy-3-phenylchroman-4-yl)phenyl)piperidin-4-yl)methyl)-1,2,3,4,4a,5-hexahydropyrazino[1,2-d]pyrido[2,3-b][1,4]oxazine-8-carboxamide] | 500 to 5000 | 1 to 10 | 50 to 75 | 1 to 10 | 50 to 75 |  |  |  | 
20 | COc1cc(N2CCC(CN3CCN4c5ccc6c(c5OC[C@H]4C3)CN(C3CCC(=O)NC3=O)C6=O)CC2)c(F)cc1[C@H]1c2ccc(O)cc2OC[C@H]1c1ccccc1 (stereo partly drawn) [Compound A105, (R)-3-((S)-7-((1-(2-fluoro-4-((3R,4R)-7-hydroxy-3-phenylchroman-4-yl)-5-methoxyphenyl)piperidin-4-yl)methyl)-1-oxo-1,3,5,5a,6,7,8,9-octahydro-2H-pyrazino[1′,2′:4,5][1,4]oxazino[2,3-e]isoindol-2-yl)piperidine-2,7-dione] | < 50 | 10 to 100 | 25 to 50 | 1 to 10 | 25 to 50 |  |  |  | 
21 | COc1cc(N2CCC(CN3CCN(c4ccc(C(=O)NC5CCC(=O)NC5=O)nc4)CC3)CC2)c(F)cc1[C@H]1c2ccc(O)cc2OC[C@H]1c1ccccc1 (stereo partly drawn) [Compound A109, N-(2,6-dioxopiperidin-3-yl)-5-(4-((1-(2-fluoro-4-((3R,4R)-7-hydroxy-3-phenylchroman-4-yl)-5-methoxyphenyl)piperidin-4-yl)methyl)piperazin-1-yl)picolinamide] | > 5000 | 10 to 100 |  | 1 to 10 |  |  | C (“C”: 25%-50%) |  | C (“C”: 25%-50%)
